Results published in PubChem BioAssay AID2060508 (Molecular Pharmacology Branch, DTP, NCI, 2025).

System: 454973-116-R2-J3-PDC spheroids, viability, % test/control
Assay: Anticancer human tumor 454973-116-R2-J3-PDC patient-derived pancreatic carcinoma cell line growth inhibition [GQUAD]
Conditions: spheroids with HUVEC and MSC; for IC50: curve of first compound; for viability, T/C: stronger effect = lower value
Text: DNA G-quadruplex Stabilizer Agents in Combinations in Complex Spheroids
A high-throughput screen of multi-cell type tumor spheroids was designed to identify active combinations of DNA G-quadruplex stabilizer agents and targeted small molecules. Complex spheroids include a stromal component modeled by human endothelial cells (HUVEC) and fibroblasts modeled by human mesenchymal stem cells (MSCs). The concentration ranges selected for each drug and investigational agent were based upon clinically achievable concentrations if the clinical Cmax of the agent was known.
Compounds. The drugs and investigational agents: pidnarulex (CX-5461; NSC782164), APTO-253 (NSC789042), BRACO-19 (NSC847499), peposertib (NSC802822), ceralasertib (NSC780249), elimusertib (NSC800525), camonsertib (NSC841442), AZD-1390 (NSC803789), olaparib (NSC753686), talazoparib (NSC767125), ART-558 (NSC835418), sotorasib (NSC818433), MRTX-1133 (NSC836407), SN-38 (NSC673596), topotecan (NSC609699), etoposide (NSC141540), doxorubicin (NSC123127), gemcitabine (NSC613327), 5-fluorouracil (NSC19893), paclitaxel (NSC125973), vemurafenib (NSC761431), panobinostat (NSC761190), R-306465 (JNJ-16241199; NSC773264), adavosertib (NSC754352), TP-3654 (NSC805149), carboplatin (NSC241240), KSQ-4279 (NSC840948), and staurosporine (NSC755774) were obtained from the National Cancer Institute (NCI) Developmental Therapeutics Program Chemical Repository (34). The FDA-approved anticancer drug set is available from the NCI Developmental Therapeutics Program. […] The stock solutions were prepared in dimethyl sulfoxide (DMSO, Sigma-Aldrich, St. Louis, MO, cat. D2650) at 800-fold the tested concentration and stored at -70 degrees C prior to their use. All drugs and investigational agents were tested over a range starting from a high concentration at or near the clinical Cmax and decreasing in half-log increments. If the clinical Cmax for an agent had not been determined, the highest concentration tested was 10 microM.
2.3 Cell Culture. All cells were maintained in an incubator at 37 degrees C and 5% CO2 with 95% humidity. The PDC lines were cultured according to standard operating procedures established by the NCI PDMR. All PDCs were thawed and cultured in Matrigel-coated flasks prepared with a working solution of 1X Ham's F-12 nutrient mix, without supplementation (Invitrogen, cat. 11765054), 100 U/mL penicillin-streptomycin (Invitrogen, cat. 15140122), and 2.5% Matrigel (Corning Inc., cat. 354248) for the first three passages. The 857933-349-R-J2-PDC line was cultured in 6C/Colon 1B media, which includes advanced DMEM/F-12 (Thermo Fisher Scientific, cat. 12634028), 10 mM HEPES (Thermo Fisher Scientific, cat. 15630080), 1X GlutaMAX supplement (Thermo Fisher Scientific, cat. 35050061), 0.1 mg/mL primocin (InvivoGen, cat. ant-pm-2), 10% defined fetal bovine serum, heat inactivated (HyClone Laboratories Inc., cat. SH30070.03HI), 50% L-WRN conditioned media (ATCC, cat. CRL-3276), 1.25 mM N-Acetyl-L-cysteine (Sigma-Aldrich, cat. A9165), 10 mM nicotinamide (Sigma-Aldrich, cat. N0636), 1X B-27 supplement (Thermo Fisher Scientific, cat. 17504044), 1X N-2 supplement (Thermo Fisher Scientific, cat. 17502048), 10 microM Y-27632 dihydrochloride (Tocris Bioscience, cat. 1254), and 50 ng/mL human EGF recombinant protein (Thermo Fisher Scientific, cat. PHG0311). The 485176-168-R4-J1-PDC line was cultured in Panc media, which includes all 6C/Colon 1B media components plus 100 ng/mL human FGF-10 (Thermo Fisher Scientific, cat. 100-26), 500 nM SB-431542 (Selleckchem, cat. S1067), and gastrin (Tocris, cat. 3006).
[…]
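Also: spheroids exposed to compounds for seven days.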

C#Cc1c(F)ccc2cc(O)cc(-c3ncc4c(N5CC6CCC(C5)N6)nc(OCC56CCCN5CC(F)C6)nc4c3F)c12 (configuration not stated) + CN(C)c1ccc(Nc2c3ccc(NC(=O)CCN4CCCC4)cc3nc3cc(NC(=O)CCN4CCCC4)ccc23)cc1
IC50 (second compound 0.0316 µM): 41.7 nM | IC50 (second compound 0.1 µM): 52.3 nM | IC50 (second compound 0.316 µM): 31.8 nM | IC50 (second compound 1 µM): < 31.6 nM | IC50 (second compound 3.16 µM): 39.7 nM | IC50 (second compound 10 µM): < 31.6 nM | viability, T/C (second compound 0.0316 µM, first compound 0.0316 µM): 54.1% | viability, T/C (second compound 0.0316 µM, first compound 0.1 µM): 37.5% | viability, T/C (second compound 0.0316 µM, first compound 0.316 µM): 28.1% | viability, T/C (second compound 0.0316 µM, first compound 1 µM): 20.2% | viability, T/C (second compound 0.0316 µM, first compound 3.16 µM): 20.2% | viability, T/C (second compound 0.0316 µM, first compound 10 µM): 15.8% | viability, T/C (second compound 0.1 µM, first compound 0.0316 µM): 56.4% | viability, T/C (second compound 0.1 µM, first compound 0.1 µM): 41.9% | viability, T/C (second compound 0.1 µM, first compound 0.316 µM): 24.3% | viability, T/C (second compound 0.1 µM, first compound 1 µM): 22.4% | viability, T/C (second compound 0.1 µM, first compound 3.16 µM): 21.2% | viability, T/C (second compound 0.1 µM, first compound 10 µM): 16.9% | viability, T/C (second compound 0.316 µM, first compound 0.0316 µM): 50% | viability, T/C (second compound 0.316 µM, first compound 0.1 µM): 35.7% | viability, T/C (second compound 0.316 µM, first compound 0.316 µM): 23% | viability, T/C (second compound 0.316 µM, first compound 1 µM): 21.4% | viability, T/C (second compound 0.316 µM, first compound 3.16 µM): 17.4% | viability, T/C (second compound 0.316 µM, first compound 10 µM): 15.7% | viability, T/C (second compound 1 µM, first compound 0.0316 µM): 49.4% | viability, T/C (second compound 1 µM, first compound 0.1 µM): 33.1% | viability, T/C (second compound 1 µM, first compound 0.316 µM): 26.9% | viability, T/C (second compound 1 µM, first compound 1 µM): 16.9% | viability, T/C (second compound 1 µM, first compound 3.16 µM): 18.6% | viability, T/C (second compound 1 µM, first compound 10 µM): 18% | viability, T/C (second compound 3.16 µM, first compound 0.0316 µM): 53.8% | viability, T/C (second compound 3.16 µM, first compound 0.1 µM): 36% | viability, T/C (second compound 3.16 µM, first compound 0.316 µM): 26.9% | viability, T/C (second compound 3.16 µM, first compound 1 µM): 23% | viability, T/C (second compound 3.16 µM, first compound 3.16 µM): 21.3% | viability, T/C (second compound 3.16 µM, first compound 10 µM): 12.1% | viability, T/C (second compound 10 µM, first compound 0.0316 µM): 44.9% | viability, T/C (second compound 10 µM, first compound 0.1 µM): 26.7% | viability, T/C (second compound 10 µM, first compound 0.316 µM): 17.5% | viability, T/C (second compound 10 µM, first compound 1 µM): 13.4% | viability, T/C (second compound 10 µM, first compound 3.16 µM): 3.6% | viability, T/C (second compound 10 µM, first compound 10 µM): 0.44%
